Source: patent US6624176B2, “Heteroaromatic substituted amides with antagonistic activity to neurokinin 1 receptors” (Hoffmann-La Roche Inc., priority 2001, dated 2003)

Target: T1, human NK1 receptor (Homo sapiens, UniProt P25103)
T1 construct: expressed in transfected cells; host or cells: CHO cells infected using the Semliki virus expression system; membrane suspension
Test: NK1 receptor binding assay, [3H]substance P displacement
Conditions: affinity to the NK-1 receptor; human NK1 receptors in CHO cells; [3H]substance P 0.6 nM
Method: The affinity of test compounds for the NK1 receptor was evaluated at human NK1 receptors in CHO cells infected with the human NK1 receptor (using the Semliki virus expression system) and radiolabelled with [^3H]substance P (final concentration 0.6 nM). Binding assays were performed in HEPES buffer (50 mM, pH 7.4) containing BSA (0.04%) leupeptin (8 μg/ml), MnCI2 (3 mM) and phosphoramidon (2 μM). Binding assays consisted of 250 μl of membrane suspension (1.25×10^5 cells/assay tube), […] of buffer of displacing agent and 125 μl of [^3H]substance P. Displacement curves were determined with at least seven concentrations of the compound. The assay tubes were incubated for 60 min at room temperature after which time the tube contents were rapidly filtered under vacuum through GF/C filters presoaked for 60 min with PEI (0.3%) with 2×2 ml washes of HEPES buffer (50 mM, pH 7.4). The radioactivity retained on the filters was measured by scintillation counting. All assays were performed in triplicate in at least 2 separate experiments.

T1 sequence (P25103 whole entry): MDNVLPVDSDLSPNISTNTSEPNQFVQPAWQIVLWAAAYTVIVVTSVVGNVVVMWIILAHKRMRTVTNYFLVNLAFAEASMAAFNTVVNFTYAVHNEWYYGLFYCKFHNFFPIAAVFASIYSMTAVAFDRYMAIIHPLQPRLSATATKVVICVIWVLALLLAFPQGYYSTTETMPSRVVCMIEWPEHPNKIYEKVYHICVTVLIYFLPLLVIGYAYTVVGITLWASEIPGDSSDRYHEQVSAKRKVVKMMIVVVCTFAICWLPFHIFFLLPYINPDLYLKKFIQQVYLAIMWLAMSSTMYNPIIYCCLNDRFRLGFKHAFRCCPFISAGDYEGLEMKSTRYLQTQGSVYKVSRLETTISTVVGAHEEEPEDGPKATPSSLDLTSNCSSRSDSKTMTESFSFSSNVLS

Row | SMILES | Ki
1 | Cc1ccccc1-c1cc(-n2cncn2)ncc1C(=O)N(C)Cc1cc(C(F)(F)F)cc(C(F)(F)F)c1 [Example 1, N-(3,5-Bis-trifluoromethyl-benzyl)-N-methyl-4-o-tolyl-6-[1,2,4]triazol-1-yl-nicotinamide] | 3.98 nM
2 | Cc1ccccc1-c1cc(N(C)C(=O)C2CC2)ncc1N(C)C(=O)C(C)(C)c1cc(C(F)(F)F)cc(C(F)(F)F)c1 [Example 13, Cyclopropanecarboxylic acid (5-{[2-(3,5-bis-trifluoromethyl-phenyl)-2-methyl-propionyl]-methyl-amino}-4-o-tolyl-pyridin-2-yl)-methyl-amide] | 1.35 nM
3 | Cc1ccccc1-c1cc(NCCO)ncc1C(=O)N(C)Cc1cc(C(F)(F)F)cc(C(F)(F)F)c1 [Example 2, N-(3,5-Bis-trifluoromethyl-benzyl)-6-(2-hydroxy-ethylamino)-N-methyl-4-o-tolyl-nicotinamide] | 1.35 nM
4 | Cc1ccccc1-c1cc(N2CC[C@@H](O)C2)ncc1C(=O)N(C)Cc1cc(C(F)(F)F)cc(C(F)(F)F)c1 [Example 5, (R)-N-(3,5-Bis-trifluoromethyl-benzyl)-6-(3-hydroxy-pyrrolidin-1-yl)-N -methyl-4-o-tolyl-nicotinamide] | 0.575 nM
5 | CC(=O)N(C)c1cc(-c2ccccc2C)c(N(C)C(=O)C(C)(C)c2cc(C(F)(F)F)cc(C(F)(F)F)c2)cn1 [Example 11, N-[6-(Acetyl-methyl-amino)-4-o-tolyl-pyridin-3-yl]-2-(3,5-bis-trifluoromethyl-phenyl)-N-methyl-isobutyramide] | 1.95 nM
6 | Cc1ccccc1-c1cc(N2CCC(O)CC2)ncc1C(=O)N(C)Cc1cc(C(F)(F)F)cc(C(F)(F)F)c1 [Example 3, 4-Hydroxy-4′-o-tolyl-3,4,5,6-tetrahydro-2H-[1,2′]bipyridinyl-5′-carboxylic acid (3,5-bis-trifluoromethyl-benzyl)-methyl-amide] | 1.23 nM
7 | Cc1ccccc1-c1cc(NC(=O)C2CC2)ncc1N(C)C(=O)C(C)(C)c1cc(C(F)(F)F)cc(C(F)(F)F)c1 [Example 12, Cyclopropanecarboxylic acid (5-{[2-(3,5-bis-trifluoromethyl-phenyl)-2-methyl-propionyl]-methyl-amino}-4-o-tolyl-pyridin-2-yl)-amide] | 2.24 nM
8 | Cc1ccccc1-c1cc(NCCO)ncc1N(C)C(=O)C(C)(C)c1cc(C(F)(F)F)cc(C(F)(F)F)c1 [Example 7, 2-(3,5-Bis-trifluoromethyl-phenyl)-N-[6-(2-hydroxy-ethylamino)-4-o-toyl-pyridin-3-yl]-N-methyl-isobutyramide] | 0.692 nM
9 | Cc1ccccc1-c1cc(-n2ccnc2)ncc1N(C)C(=O)C(C)(C)c1cc(C(F)(F)F)cc(C(F)(F)F)c1 [Example 14, 2-(3,5-Bis-trifluoromethyl-phenyl)-N-(6-imidazol-1-yl-4-o-tolyl-pyridin-3-yl)-N-methyl-isobutyramide] | 2.24 nM
10 | CC(=O)Nc1cc(-c2ccccc2C)c(N(C)C(=O)C(C)(C)c2cc(C(F)(F)F)cc(C(F)(F)F)c2)cn1 [Example 10, N-(6-Acetylamino-4-o-tolyl-pyridin-3-yl)-2-(3,5-bis-trifluoromethyl-phenyl)-N-methyl-isobutyramide] | 2.51 nM
11 | CN(C(=O)C(C)(C)c1cc(C(F)(F)F)cc(C(F)(F)F)c1)c1cnc(NCCO)cc1-c1ccccc1Cl [Example 8, 2-(3,5-Bis-trifluofomethyl-phenyl)-N-[4-(2-chloro-phenyl)-6-(2-hydroxy-ethylamino)-pyridin-3-yl]-N-methyl-isobutyramide] | 0.724 nM
12 | Cc1ccccc1-c1cc(N2CCC(OCCO)CC2)ncc1C(=O)N(C)Cc1cc(C(F)(F)F)cc(C(F)(F)F)c1 [Example 4, 4-(2-Hydroxy-ethoxy)-4′-o-tolyl-3,4,5,6-tetrahydro-2H-[1,2′]bipyridinyl-5′-carboxylic acid (3,5-bis-trifluoromethyl-benzyl)-methyl-amide] | 0.933 nM
13 | Cc1ccccc1-c1cc(N2C=COCC2)ncc1N(C)C(=O)C(C)(C)c1cc(C(F)(F)F)cc(C(F)(F)F)c1 [Example 9, 2-(3,5-Bis-trifluoromethyl-phenyl)-N-[6-(2,3-dihydro-[1,4]oxazin-4-yl)-4-o-tolyl-pyridin-3-yl]-N-methyl-isobutyramide] | 1.48 nM
14 | CN(Cc1cc(C(F)(F)F)cc(C(F)(F)F)c1)C(=O)c1cnc(N2CCC(O)CC2)cc1-c1ccccc1Cl [Example 6, 4′-(2-Chloro-phenyl)-4-hydroxy-3,4,5,6-tetrahydro-2H-[1,2′]bipyridinyl-5′-carboxylic acid (3,5-bis-trifluoromethyl-benzyl)-methyl-amide] | 0.661 nM

System: not given
Test: not given
Conditions: not given

Row | SMILES | melting point
15 | Cc1ccccc1-c1cc(-n2cncn2)ncc1C(=O)N(C)Cc1cc(C(F)(F)F)cc(C(F)(F)F)c1 [Example 1, N-(3,5-Bis-trifluoromethyl-benzyl)-N-methyl-4-o-tolyl-6-[1,2,4]triazol-1-yl-nicotinamide] | 91 to 93 °C
16 | Cc1ccccc1-c1cc(N2CCC(O)CC2)ncc1C(=O)N(C)Cc1cc(C(F)(F)F)cc(C(F)(F)F)c1 [Example 3, 4-Hydroxy-4′-o-tolyl-3,4,5,6-tetrahydro-2H-[1,2′]bipyridinyl-5′-carboxylic acid (3,5-bis-trifluoromethyl-benzyl)-methyl-amide] | 150 to 152 °C
